Tested on: PKC
Test: PKC activity of primary human mesothelial cells
Assay type: cell-based
Conditions: human mesothelial cells exposed to vitamin E, low or high (150 mM) glucose, presence or absence of PMA (FIG. 2)
Method: The PKC activity was determined in the presence or absence or PMA, an activator of PKC. […] The mesothelial cells were exposed to low or high (150 mM) levels of glucose in the presence or absence of PMA, an activator of PKC, and the presence or absence of vitamin E, a PKC inhibitor. […] The PKC activity was determined in the presence or absence or PMA, an activator of PKC. […] These concentrations of glucose are standard for dialysis. […] It has been reported that activation of these pathways increases fibrosis. […] Therefore, inhibition of PKC can decrease fibrosis and reduce or prevent permeability failure of the peritoneal membrane.

## vitamin E
  PKC activity: decrease of PKC activity

Reference: patent US20050020662A1, “Inhibition of PKC to treat permability failure” (Joslin Diabetes Center, Inc., a Massachusetts corporation, priority 1999, published 2005)
